Bounds are passed on as bounds.

The experiment has as its system LXRα and/or LXRβ. The experiment is described as follows: LXR/LXRE co-transfection assay (luciferase reporter, CV-1 cells). The settings on record: IC50 or EC50 for LXR (LXRα and/or LXRβ, not distinguished), tested as described in Example 109, CV-1 cells. Format: cell-based, human. The method in brief:
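Transient co-transfection of CV-1 cells with full-length human LXRα or LXRβ plus RXRα expression plasmids and an LXREx1-Tk-luciferase reporter; compounds (10 μM screen, ≤1% DMSO) incubated 20 h at 37 °C. Luminescence read after lysis; EC50/IC50 from 8-point half-log curves, efficacy relative to a high control or DMSO.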
On the technique in general: In a reporter assay the amount or activity of a reporter protein is the signal.
Consider `CC(C)(O)c1cccc(-c2ccc(-c3cc(C(F)(F)F)nn3-c3ccccc3Cl)s2)c1` [Example 1240, 2-(3-{5-[1-(2-chlorophenyl)-3-(trifluoromethyl)-1H-pyrazol-5-yl]-2-thienyl}phenyl)propan-2-ol], for which the EC50 (usually the midpoint of the concentration-response curve) was less than 1000 nM.

The compound `CC(C)(O)c1ccc(-c2ccc(-c3cc(C(F)(F)F)nn3-c3ccccc3Cl)s2)cc1` [Example 1241, 2-(4-{5-[1-(2-chlorophenyl)-3-(trifluoromethyl)-1H-pyrazol-5-yl]-2-thienyl}phenyl)propan-2-ol] came in with an EC50 of 1000 to 10000 nM.

Take `CC(=O)c1cc(-c2ccc(-c3cccc(S(C)(=O)=O)c3)s2)n(-c2c(Cl)cccc2Cl)n1` [Example 1242, 1-[1-(2,6-dichlorophenyl)-5-{5-[3-(methylsulfonyl)phenyl]-2-thienyl}-1H-pyrazol-3-yl]ethanone]: the EC50 is less than 1000 nM.

For the compound `CC(C)(O)c1cc(-c2ccc(-c3cccc(S(C)(=O)=O)c3)s2)n(Cc2ccc(F)cc2F)n1` [Example 1243, 2-(1-[(2,4-difluorophenyl)methyl]-5-{5-[3-(methylsulfonyl)phenyl]-2-thienyl}-1H-pyrazol-3-yl)propan-2-ol], the EC50 was less than 1000 nM.

In turn, `COC(=O)c1cc(-c2ccccc2Cl)n(-c2ccc(-c3cccc(S(C)(=O)=O)c3)nc2)n1` [Example 1244, methyl 5-(2-chlorophenyl)-1-{6-[3-(methylsulfonyl)phenyl]pyridin-3-yl}-1H-pyrazole-3-carboxylate] returned an EC50 of 1000 to 10000 nM.

In turn, `CS(=O)(=O)c1cccc(-c2ccc(-c3cc(C4(O)CC4)nn3-c3ccccc3Cl)s2)c1` [Example 1245, 1-[1-(2-chlorophenyl)-5-{5-[3-(methylsulfonyl)phenyl]-2-thienyl}-1H-pyrazol-3-yl]cyclopropanol] returned an EC50 of less than 1000 nM.

Compound `CC(C)(O)c1cc(-c2ccccc2Cl)n(-c2ccc(-c3cccc(S(C)(=O)=O)c3)nc2)n1` [Example 1246, 2-[5-(2-chlorophenyl)-1-(6-[3-(methylsulfonyl)phenyl]pyridin-3-yl}-1H-pyrazol-3-yl]propan-2-ol] gave an EC50 of 1000 to 10000 nM.

As for `CS(=O)(=O)c1cc(-c2ccc(-c3cc(C(F)(F)F)nn3-c3cc(Cl)ccc3Cl)s2)ccc1O` [Example 1247, 4-{5-[1-(2,5-dichlorophenyl)-3-(trifluoromethyl)-1H-pyrazol-5-yl]-2-thienyl}-2-(methylsulfonyl)phenol], the EC50 is 1000 to 10000 nM.

As for `CC(=O)c1cc(-c2ccccc2Cl)n(-c2ccc(-c3cccc(S(C)(=O)=O)c3)cn2)n1` [Example 1248, 1-[5-(2-chlorophenyl)-1-(5-[3-(methylsulfonyl)phenyl]pyridin-2-yl}-1H-pyrazol-3-yl]ethanone], the concentration for a half-maximal effect (EC50) was 1000 to 10000 nM.

Turning to `CC(=O)c1cc(-c2ccccc2Cl)n(-c2ccc(-c3cccc(S(C)(=O)=O)c3)nc2)n1` [Example 1249, 1-[5-(2-chlorophenyl)-1-{6-[3-(methylsulfonyl)phenyl]pyridin-3-yl}-1H-pyrazol-3-yl]ethanone], the EC50 was 1000 to 10000 nM.

As for `CC(C)(O)c1cc(-c2cc(-c3cccc(S(C)(=O)=O)c3)cs2)n(-c2ccccc2Cl)n1` [Example 1250, 2-[1-(2-chlorophenyl)-5-{4-[3-(methylsulfonyl)phenyl]-2-thienyl}-1H-pyrazol-3-yl]propan-2-ol], the EC50 lay in the range of 1000 to 10000 nM.

Regarding `Cc1ccc(-n2nc(C(F)(F)F)cc2-c2ccc(-c3cccc(S(C)(=O)=O)c3)s2)c(Cl)c1O` [Example 1251, 2-chloro-6-methyl-3-[5-{5-[3-(methylsulfonyl)phenyl]-2-thienyl}-3-(trifluoromethyl)-1H-pyrazol-1-yl]phenol], the EC50 was in the range of 1000 to 10000 nM.

In the case of `CC(C)(O)c1cccc(-c2ccc(-c3cc(C(F)(F)F)nn3-c3ncccc3C(F)(F)F)s2)c1` [Example 1252, 2-[3-(5-{3-(trifluoromethyl)-1-[3-(trifluoromethyl)pyridin-2-yl]-1H-pyrazol-5-yl}-2-thienyl)phenyl]propan-2-ol], the half-maximal effective concentration (EC50) was in the range of 1000 to 10000 nM.

`CC(C)(O)c1ccc(-c2ccc(-c3cc(C(F)(F)F)nn3-c3ncccc3C(F)(F)F)s2)cc1` [Example 1253, 2-[4-(5-{3-(trifluoromethyl)-1-[3-(trifluoromethyl)pyridin-2-yl]-1H-pyrazol-5-yl}-2-thienyl)phenyl]propan-2-ol]: the EC50 fell in the range of 1000 to 10000 nM.

As to `CS(=O)(=O)c1cc(-c2ccc(-c3cc(C(F)(F)F)nn3-c3cc(Cl)ccc3Cl)s2)ccc1OCCO` [Example 1255, 2-{[4-{5-[1-(2,5-dichlorophenyl)-3-(trifluoromethyl)-1H-pyrazol-5-yl]-2-thienyl}-2-(methylsulfonyl)phenyl]oxy}ethanol], the EC50 is 1000 to 10000 nM.

For the compound `CC(C)(O)c1cc(-c2ccc(-c3cccc(S(C)(=O)=O)c3)s2)n(-c2cccc(Cl)c2)n1` [Example 1256, 2-[1-(3-chlorophenyl)-5-{5-[3-(methylsulfonyl)phenyl]-2-thienyl}-1H-pyrazol-3-yl]propan-2-ol], the EC50 lay in the range of 1000 to 10000 nM.

`CC(C)(O)c1cc(-c2ccc(-c3cccc(S(C)(=O)=O)c3)s2)n(-c2ccc(Cl)cc2)n1` [Example 1257, 2-[1-(4-chlorophenyl)-5-{5-[3-(methylsulfonyl)phenyl]-2-thienyl}-1H-pyrazol-3-yl]propan-2-ol] came in with an EC50 of 1000 to 10000 nM.

`CC(C)(O)c1cc(-c2ccc(-c3cccc(S(C)(=O)=O)c3)s2)n(-c2cccc(F)c2)n1` [Example 1258, 2-[1-(3-fluorophenyl)-5-{5-[3-(methylsulfonyl)phenyl]-2-thienyl}-1H-pyrazol-3-yl]propan-2-ol] came in with an EC50 of 1000 to 10000 nM.

`CS(=O)(=O)c1cc(-c2ccc(-c3cc(C(F)(F)F)nn3-c3cc(Cl)ccc3Cl)s2)ccc1OCCN1CCOCC1` [Example 1259, 4-(2-{[4-{5-[1-(2,5-dichlorophenyl)-3-(trifluoromethyl)-1H-pyrazol-5-yl]-2-thienyl}-2-(methylsulfonyl)phenyl]oxy}ethyl)morpholine] registered an EC50 of 1000 to 10000 nM.

As for `CS(=O)(=O)c1cc(-c2ccc(-c3cc(C(F)(F)F)nn3-c3cc(Cl)ccc3Cl)s2)ccc1OCCc1nnn[nH]1` [Example 1260, 5-(2-{[4-{5-[1-(2,5-dichlorophenyl)-3-(trifluoromethyl)-1H-pyrazol-5-yl]-2-thienyl}-2-(methylsulfonyl)phenyl]oxy}ethyl)-1H-tetrazole], the EC50 lay in the range of 1000 to 10000 nM.

In the case of `CC(C)(O)c1cc(-c2ccc(-c3cccc(S(C)(=O)=O)c3)s2)n(-c2ccccc2F)n1` [Example 1261, 2-[1-(2-fluorophenyl)-5-{5-[3-(methylsulfonyl)phenyl]-2-thienyl}-1H-pyrazol-3-yl]propan-2-ol], the 50% effective concentration (EC50) is less than 1000 nM.

Regarding `CC(C)(O)c1cc(-c2ccc(-c3cccc(S(C)(=O)=O)c3)s2)n(-c2ccccc2)n1` [Example 1262, 2-(5-{5-[3-(methylsulfonyl)phenyl]-2-thienyl}-1-phenyl-1H-pyrazol-3-yl)propan-2-ol], the EC50 was less than 1000 nM.

The compound `CC(C)(O)c1cc(-c2ccc(-c3cccc(S(C)(=O)=O)c3)s2)n(-c2ccc(F)cc2)n1` [Example 1263, 2-[1-(4-fluorophenyl)-5-{5-[3-(methylsulfonyl)phenyl]-2-thienyl}-1H-pyrazol-3-yl]propan-2-ol] showed an EC50 of 1000 to 10000 nM.

With `CC(C)(O)c1cc(-c2ccc(-c3cccc(S(C)(=O)=O)c3)s2)n(-c2ccccn2)n1` [Example 1264, 2-(5-{5-[3-(methylsulfonyl)phenyl]-2-thienyl}-1-pyridin-2-yl-1H-pyrazol-3-yl)propan-2-ol], the 50% effective concentration (EC50) is 1000 to 10000 nM.

As to `CC(C)(O)c1cc(-c2ccc(-c3cccc(S(C)(=O)=O)c3)s2)n(-c2ccc(F)cc2F)n1` [Example 1265, 2-[1-(2,4-difluorophenyl)-5-{5-[3-(methylsulfonyl)phenyl]-2-thienyl}-1H-pyrazol-3-yl]propan-2-ol], the EC50 is less than 1000 nM.

Regarding `CC(C)(O)c1cc(-c2ccc(-c3cccc(S(C)(=O)=O)c3)s2)n(-c2ccc(F)c(F)c2)n1` [Example 1267, 2-[1-(3,4-difluorophenyl)-5-{5-[3-(methylsulfonyl)phenyl]-2-thienyl}-1H-pyrazol-3-yl]propan-2-ol], the EC50 lay within 1000 to 10000 nM.

`CC(=O)c1cc(-c2ccc(-c3cccc(S(C)(=O)=O)c3)s2)n(-c2ccccc2)n1` [Example 1268, 1-(5-{5-[3-(methylsulfonyl)phenyl]-2-thienyl}-1-phenyl-1H-pyrazol-3-yl)ethanone] registered an EC50 of less than 1000 nM.

Compound `CC(C)(O)c1cc(-c2ccc(-c3cccc(C#N)c3)s2)n(-c2ccccc2Cl)n1` [Example 1269, 3-{5-[1-(2-chlorophenyl)-3-(1-hydroxy-1-methylethyl)-1H-pyrazol-5-yl]-2-thienyl}benzonitrile] returned an EC50 of 1000 to 10000 nM.

The compound `CC(CO)NC(=O)c1cc(-c2ccc(-c3cccc(S(C)(=O)=O)c3)s2)n(-c2ccccc2Cl)n1` (centres unmarked) [Example 1270, 1-(2-chlorophenyl)-N-(2-hydroxy-1-methylethyl)-5-{5-[3-(methylsulfonyl)phenyl]-2-thienyl}-1H-pyrazole-3-carboxamide] came in with an EC50 of 1000 to 10000 nM.

The compound `CN(Cc1cccnc1)C(=O)c1cc(-c2ccc(-c3cccc(S(C)(=O)=O)c3)s2)n(-c2ccccc2Cl)n1` [Example 1271, 1-(2-chlorophenyl)-N-methyl-5-{5-[3-(methylsulfonyl)phenyl]-2-thienyl}-N-(pyridin-3-ylmethyl)-1H-pyrazole-3-carboxamide] came in with a concentration giving a half-maximal response (EC50) of 1000 to 10000 nM.

As to `CC(C)(O)c1cc(-c2ccc(-c3cccc(S(C)(=O)=O)c3)s2)n(-c2ncccc2F)n1` [Example 1272, 2-[1-(3-fluoropyridin-2-yl)-5-{5-[3-(methylsulfonyl)phenyl]-2-thienyl}-1H-pyrazol-3-yl]propan-2-ol], the EC50 was 1000 to 10000 nM.

As for `CC(C)(O)c1cc(-c2ccc(-c3cccc(S(C)(=O)=O)c3)s2)n(-c2cccnc2Cl)n1` [Example 1273, 2-[1-(2-chloropyridin-3-yl)-5-{5-[3-(methylsulfonyl)phenyl]-2-thienyl}-1H-pyrazol-3-yl]propan-2-ol], the EC50 was less than 1000 nM.
